ChEMBL document CHEMBL3639268, “Derivatives of N-acyl-N‚Ä=-phenylpiperazine useful (inter alia) for the prophylaxis or treatment of diabetes” (2014)

Target: Retinol-binding protein 4 (Homo sapiens, UniProt P02753)
Assay: Binding Assay: Streptavidin (20 ul) (10 ug/ml Streptavidin type II (Wako Pure Chemical Industries, Ltd.), 10 mM Tris-HCl (pH 7.5), 10 mM NaCl) was added to a 384 well black plate (Nunc MaxiSorp, Thermo Fisher Scientific Inc.), and the plate was subjected to centrifugation (1000 rpm, 1 min) and coated overnight at 4 C. The plate was washed twice with PBST (PBS, 0.05% Tween 20, 100 ul/well) and blocked with 25% Block Ace (Snow Brand Milk Products Co., Ltd., PBS, 100 ul/well). The plate was subjected to centrifugation (1000 rpm, 1 min) and incubated at room temperature for 4 hr or overnight at 4 C. The plate was washed twice with PBST (PBS, 0.05% Tween 20, 100 ul/well), and biotinylate human TTR (stock solution concentration 1.0 mg/ml) diluted 750-fold with PBST was added at 20 ul/well. The plate was subjected to centrifugation (1000 rpm, 1 min) and stood still at room temperature for 1.5 hr or overnight at 4 C. The plate was washed 3 times with PBST (100 ul/well).

CC(C)(C)c1ccccc1N1CCN(C(=O)c2nc[nH]n2)CC1
IC50: 15 nM
